Measurements: paper PMC3814362 (Nucleic Acids Research, 2013)

Assays:
[1] = molecular target: T1, HflX-FL; HflX-WT (EcHflX) (Escherichia coli, UniProt P25519); assay: mant fluorescence emission; format: binding; conditions: labelled compound; 5 µM protein, 1 µM mant-ATP, pH 8.0, 5 mM MgCl2
T1 sequence (P25519 1-426): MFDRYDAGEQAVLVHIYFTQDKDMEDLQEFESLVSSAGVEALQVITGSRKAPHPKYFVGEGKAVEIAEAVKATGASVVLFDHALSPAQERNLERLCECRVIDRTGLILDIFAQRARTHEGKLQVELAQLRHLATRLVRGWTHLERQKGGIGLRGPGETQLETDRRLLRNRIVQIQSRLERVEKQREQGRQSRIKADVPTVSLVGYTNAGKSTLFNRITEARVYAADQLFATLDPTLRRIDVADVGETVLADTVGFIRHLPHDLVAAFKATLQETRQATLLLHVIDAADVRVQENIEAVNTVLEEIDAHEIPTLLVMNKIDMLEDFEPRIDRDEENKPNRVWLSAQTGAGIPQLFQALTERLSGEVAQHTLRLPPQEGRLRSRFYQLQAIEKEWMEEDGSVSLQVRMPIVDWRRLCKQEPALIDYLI

[2] = molecular target: T2, HflX-ND1 (Escherichia coli, UniProt P25519); assay: mant fluorescence emission; format: binding; conditions: labelled compound; 5 µM protein, 1 µM mant-ATP, pH 8.0, 5 mM MgCl2
T2 sequence (P25519 1-120): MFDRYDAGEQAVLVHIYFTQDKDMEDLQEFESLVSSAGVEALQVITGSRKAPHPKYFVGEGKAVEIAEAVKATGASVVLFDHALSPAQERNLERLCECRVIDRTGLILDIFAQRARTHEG

**Q.** For `CNc1ccccc1C(=O)O[C@H]1[C@@H](O)[C@H](n2cnc3c(N)ncnc32)O[C@@H]1COP(=O)(O)OP(=O)(O)OP(=O)(O)O` [mant-ATP], which “mant fluorescence emission (ex 355 nm)” value [1] is on record?
**A.** HflX-ND1, like the full-length protein, binds mant-ATP

**Q.** What about the “mant fluorescence emission (ex 355 nm)” value [2] of the same molecule?
**A.** HflX-ND1, like the full-length protein, binds mant-ATP
